From patent US20020013478A1, “Calanolide analogues and methods of their use” (Sarawak Medichem Pharmaceuticals,Inc., priority 1994, published 2002)

How the values were obtained:
[1] = tested on: HCMV; test: HCMV semi-automated CPE-inhibition assay in human foreskin fibroblast cells; format: cell-based, human cytomegalovirus; details: Table II
[2] = tested on: VZV; test: VZV plaque reduction assay in human foreskin fibroblast cells; format: cell-based, varicella zoster virus; details: Table II
Outline: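 VZV at 20-30 plaques/well adsorbed 1 h onto HFF monolayers, then 0.5% agarose overlay holding drug at final 100 down to 0.03 μg/mL (1:5 steps), duplicates. Incubation 10 days, extra MEM/agarose overlay on days 3 and 6; neutral red staining, plaques counted.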

[3] = tested on: Raji or Daudi cells; test: Toxicity run with the EBV assay; format: cell-based, human; details: Table II
From the text: IC50 (50% inhibitory concentration) is the concentration required to inhibit cell proliferation by 50%

[4] = tested on: Madin Darby canine kidney (MDCK) cells; test: Cytotoxicity run with the influenza assay; format: cell-based; details: Table II footnote i; read-out: Others IC50, against influenza A(H1N1)
Protocol: Virus strains: A/Texas/36191 (H1N1) (Source: Center for Disease Control and Prevention [CDC]), A/Beijing/2/92 (H3N2) (Source: CDC), B/Panama/45/90 (Source: CDC), A/NWS/33 (H1N1) (Source: American Type Culture Collection [ATCC]). (All but A/NWS/33 are tested in the presence of trypsin). Cell lines: Madin Darby canine kidney (MDCK) cells.

[5] = tested on: influenza A(H1N1); test: Influenza A inhibition of viral CPE in MDCK cells; format: cell-based, influenza A virus; details: Table II footnote i; read-out: Others EC50, against influenza A(H1N1)
[6] = tested on: HBV; test: HBV replication in cultures of 2.2.15 cells, extracellular HBV virion DNA (primary assay); details: read-out: HBV EC50; Table II
[7] = tested on: 2.2.15 cells; test: Toxicity in 2.2.15 cells, neutral red dye uptake; format: cell-based, human; details: Table II; read-out: HBV IC50
Protocol: Cells of 2.2.15 were grown to confluence in 96-well flat-bottomed tissue culture plates and treated with compounds (in 0.2 mL culture medium/well) as described above. Four concentrations of each compound were assayed, each in triplicate cultures, in 3- to 10-fold steps. Untreated control cultures were maintained on each 96-well plate. On each 96-well plate, wells containing no cells were used to correct for light scattering.

[8] = tested on: EBV; test: EBV assay: superinfection of Raji or Daudi cells with P3HR-1, immunofluorescence for EA and VCA; format: cell-based, Epstein-Barr virus; details: Table II
Outline: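 Raji cells (Burkitt's lymphoma, 60 EBV genomes/cell) or Daudi cells were superinfected with P3HR-1 EBV, and drugs were added after 45 min adsorption at 37 °C and washing. After 48 h, smears were stained with monoclonal antibodies to EA components and VCA plus fluorescein anti-mouse Ig. Fluorescence-positive cells were counted to give total EA- or VCA-positive cells per culture.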

[9] = tested on: human foreskin fibroblast cells; test: Toxicity run with the HCMV assay, human foreskin fibroblast cells; format: cell-based; details: Table II
Outline: (§1)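 Human foreskin fibroblasts exposed to drug at 37 °C in CO2, either 72 h followed by Coulter Counter counts (triplicate counts, three replicate wells), or seven days followed by dye staining for 1 h and optical density at 550 nm.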

[10] = tested on: human foreskin fibroblast cells; test: Toxicity run with the VZV assay, human foreskin fibroblast cells; format: cell-based; details: Table II
Outline: as §1

CC1Oc2c3c(c4c(-c5ccccc5)cc(=O)oc4c2C(O)C1C)OC(C)(C)C=C3 (single isomer, unassigned; (-)) [(−)-24]
HCMV EC50 [1]: >4.0 µg/mL | VZV EC50 [2]: >4.0 µg/mL | EBV IC50 [3]: >50 µg/mL | IC50 [4]: > 100 µM | EC50 [5]: 57 µM | EC50 [6]: > 10 µM | IC50 [7]: 151 µM | EBV EC50 [8]: >50 µg/mL | HCMV IC50 [9]: 14.4 µg/mL | VZV IC50 [10]: 12.0 µg/mL
